Data taken from patent publication US20250099420A1, “SMALL MOLECULE MODULATORS OF GPR139 COMPLEX” (University of Florida Research Foundation, Incorporated, priority 2022, published 2025).
Like-named read-outs stand apart in the source and are kept apart here.

Experiments:
parental HEK cells = experiment: HEK parental Agonist Counterscreen Assay (non-transfected cells); assay type: cell-based; conditions: for Averaged Max % Response (±St. Dev.): activity relative to known control
Source text: The high control for the agonist counterscreen was Forskolin not acetylcholine.

GPR139 = target: T1, GPR139 (Homo sapiens, UniProt Q6DWJ6); experiment: GPR139 Agonist titration / agonist counterscreen assay (calcium detection, HEK-GPR139 cells); assay type: cell-based; set-up: expressed in transfected cells; host or cells: HEK Aequorin cells, Maxcyte transient transfection; conditions: GPR139 Agonist Activity; for Averaged Max % Response (±St. Dev.): activity relative to known control; for EC50: read-out: EC50
T1 sequence (Q6DWJ6 1-353): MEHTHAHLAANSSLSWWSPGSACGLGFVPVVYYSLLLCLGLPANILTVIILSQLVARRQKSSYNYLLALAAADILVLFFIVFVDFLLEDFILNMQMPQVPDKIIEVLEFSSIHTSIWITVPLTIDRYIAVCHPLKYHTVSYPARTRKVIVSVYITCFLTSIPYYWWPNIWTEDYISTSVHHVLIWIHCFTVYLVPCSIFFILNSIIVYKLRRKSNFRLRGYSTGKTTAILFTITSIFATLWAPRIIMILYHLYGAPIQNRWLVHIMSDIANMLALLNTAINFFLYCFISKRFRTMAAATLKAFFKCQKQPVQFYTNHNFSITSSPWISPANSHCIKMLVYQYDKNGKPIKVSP
Experimental: GPR activity was assessed using a calcium detection assay. […] Negative control samples were treated with DMSO. […] Intracellular calcium was measured using Calcium 5.

[1] = Homo sapiens, HEK293, HEK Agonist Activity, parental non-transfected HEK cells
[2] = values printed in E-notation without unit
[3] = Homo sapiens, HEK293, HEK Agonist Activity section of Table 4 (parental HEK counterscreen)
[4] = HEK Agonist Activity section of Table 4 (parental HEK counterscreen)

SMILES	Lipophilic Efficiency (logD) (parental HEK cells; HEK Agonist Activity)	Lipophilic Efficiency (logP) (parental HEK cells; HEK Agonist Activity)	Averaged Max % Response (±St. Dev.) (parental HEK cells; HEK Agonist Activity) [%]	Averaged Max % Response (±St. Dev.) (GPR139) [%]	Lipophilic Efficiency (logD) (GPR139; based on logD)	Lipophilic Efficiency (logP) (GPR139; based on logP)	Hill Slope (GPR139; fitted dose-response curve)	Efficiency Ligand (GPR139; ligand efficiency)	EC50 (GPR139; [2]) [nM]	Lipophilic Efficiency (logD) (parental HEK cells; HEK Agonist Activity section)	Lipophilic Efficiency (logP) (parental HEK cells; HEK Agonist Activity section)	Averaged Max % Response (±St. Dev.) (parental HEK cells; HEK Agonist Activity section) [%]	EC50 (parental HEK cells; [3]) [nM]	further results
CCn1c(C)nc2cc(C(=O)NNC(=O)Cc3cccc4ccccc34)ccc21 [SR-01000041378]	1.79	1.79	−2.48 ± 2.57	94.48 ± 15.59	4.29	4.29	0.61	0.35	46.1					EC50 (parental HEK cells; [1]): > 14600 nM
CC1(c2ccc3c(c2)OCO3)NC(=O)N(CC(=O)NC2CCCC2)C1=O (stereo not shown) [SR-01000065547]				87.19 ± 17.95						3.84	3.84	2.31 ± 13.81	> 14100	Efficiency Ligand (GPR139): 0.34; Hill Slope (GPR139): 0.59; Lipophilic Efficiency (logD) (GPR139): 5.32; Lipophilic Efficiency (logP) (GPR139): 5.32; EC50 (GPR139; HEK-GPR139 cells): 465 nM
CC(NC(=O)Cn1ncc2ccccc21)c1ccc2c(c1)OCCO2 (stereo not shown) [SR-01000152760]				85.23 ± 10.03	4.79	4.79	0.63	0.38	174	2.88	2.88	0.48 ± 8.40		EC50 (parental HEK cells; [4]): > 14100 nM
O=C(NNC(=O)C1CC1c1ccccc1)Nc1cccc(Cl)c1 (stereo not shown) [SR-01000202338]	1.76	1.76	4.74 ± 3.91	79.48 ± 15.63	4.84	4.84	1.63	0.48	11.6					EC50 (parental HEK cells; [1]): > 14100 nM
C=C(CCC)c1ccc(CCC2=NNC(c3ccccc3)N2C)cc1 (stereo not shown) [SR-01000299610]				71.34 ± 19.37						2.82	2.82	−12.89 ± 6.99	> 14100	Efficiency Ligand (GPR139): 0.33; Hill Slope (GPR139): 0.79; Lipophilic Efficiency (logD) (GPR139): 3.88; Lipophilic Efficiency (logP) (GPR139): 3.88
Cc1ccc(C(=O)NNC(=O)CSc2nnc(Cn3cnc4ccccc43)o2)cc1 [SR-01000337370]				96.26 ± 15.22	5.62	5.61	0.87	0.34	47.5	3.15	3.14	23.00 ± 5.22		EC50 (parental HEK cells; [4]): > 14100 nM
COc1ccc(C2(C)NC(=O)N(CC(=O)NC3CCCC3)C2=O)cc1 (stereo not shown) [SR-01000918718]	3.62	3.62	16.28 ± 3.44	106.93 ± 8.46	6.47	6.47	0.93	0.43	19.9					EC50 (parental HEK cells; HEK Agonist Activity, parental non-transfected HEK cells): > 14100 nM
Cc1ccc(OCC(=O)NNC(=O)CN(C)S(=O)(=O)c2ccc(C)cc2)cc1 [SR-01000069435]				94.34 ± 21.26	5.44	5.43	0.66	0.36		3.09	3.08	14.76 ± 3.78	> 14600	
Cc1ccccc1-c1nc(C[S+]([O-])CC(=O)NC(C)CCc2ccccc2)c(C)o1 (stereo not shown) [SR-01000129545]				92.13 ± 1.72						1.11	1.09	32.45 ± 12.40		EC50 (parental HEK cells; [4]): > 14100 nM; Efficiency Ligand (GPR139): 0.30; Hill Slope (GPR139): 0.47; Lipophilic Efficiency (logD) (GPR139): 2.69; Lipophilic Efficiency (logP) (GPR139): 2.68; EC50 (GPR139; HEK-GPR139 cells): 365 nM
Cc1cc(CC(=O)N/C=C/c2cccc3ccccc23)n[nH]1 [SR-01000080408]				105.88 ± 16.21	6.30	4.72	0.34	0.45		4.10	2.51	71.97 ± 7.16	11900	Hill Slope (parental HEK cells; HEK Agonist Activity section): 1.95
COc1ccc(CCC(=O)Nc2ccc(OC)c(N3CCCC3=O)c2)cc1 [SR-01000916271]				111.55 ± 2.57	4.82	4.82	0.34	0.38	47.9	2.35	2.35	29.38 ± 9.84	> 14100	
COc1ccc(CCNC(=O)Nc2ccc(C)cc2)cc1 [SR-01000271555]				124.00 ± 20.16	3.11	3.11	0.62	0.44	260	1.38	1.38	14.71 ± 4.12	> 14100	
Cc1ccc(C)c(C(=O)CCC(=O)NNC(=O)c2cc(C)oc2C)c1 [SR-01000069642]	2.45	2.45	8.55 ± 4.45	100.05 ± 4.70	4.99	4.99	0.80	0.41	43.1					EC50 (parental HEK cells; [1]): > 14800 nM
CC1(c2ccc(Cl)cc2)NC(=O)N(CC(=O)NCc2cccs2)C1=O (stereo not shown) [SR-01000058107]	2.55	2.55	4.84 ± 7.51	95.61 ± 13.32	5.35	5.35	0.85	0.43	23.3					EC50 (parental HEK cells; [1]): > 14900 nM
Cc1cc(C)c2c(CC(=O)NNC(=O)COc3ccccc3)coc2c1 [SR-01000301649]				93.20 ± 6.78	3.92	3.92	0.91	0.37	145	1.94	1.93	14.38 ± 10.96		EC50 (parental HEK cells; [4]): > 14100 nM
